Tests used:
mouse melanoma = experiment: syngeneic mouse melanoma model; format: in vivo
[1] = tested on: BRAF wild-type human melanoma xenograft; experiment: BRAF wild-type human melanoma xenograft model; format: in vivo; conditions: 100 mg/kg in combination with dacarbazine
[2] = cited from earlier work
[3] = cited from earlier work; remark: listed apart in the source
[4] = cited from earlier work; remark: listed apart in the source
Xenograft A549 = experiment: Example 2: Xenograft A549 mice, tumor volume; format: in vivo; conditions: Group 02: 2 mg/kg cisplatin, corn oil
Method: Protocol: Five groups of Xenograft A549 mice were treated and tumor volume tracked for twenty-two days. Group 01 was administered 0.9% Saline, 0 mg/kg cisplatin, Corn Oil, and 0 mg/kg 2-[3-[(3R)-3-[[2-chloro-3-(trifluoromethyl)phenyl]methyl-(2,2-diphenylethyl)amino]butoxy]phenyl]acetic acid; Group 02 was administered 2 mg/kg Cisplatin, Corn Oil, and 0 mg/kg 2-[3-[(3R)-3-[[2-chloro-3-(trifluoromethyl)phenyl]methyl-(2,2-diphenylethyl)amino]butoxy]phenyl]acetic acid; Group 03 was administered 0.9% Saline, 0 mg/kg cisplatin, and 50 mg/kg 2-[3-[(3R)-3-[[2-chloro-3-(trifluoromethyl)phenyl]methyl-(2,2-diphenylethyl)amino]butoxy]phenyl]acetic acid; Group 04 was administered 2 mg/kg cisplatin and 50 mg/kg 2-[3-[(3R)-3-[[2-chloro-3-(trifluoromethyl)phenyl]methyl-(2,2-diphenylethyl)amino]butoxy]phenyl]acetic acid twice per day daily for the entire treatment period; and Group 05 was administered 2 mg/kg cisplatin and 50 mg/kg 2-[3-[(3R)-3-[[2-chloro-3-(trifluoromethyl)phenyl]methyl-(2,2-diphenylethyl)amino]butoxy]phenyl]acetic acid twice per day for five continuous days followed by two days without for the entire treatment period.

For `Cl.O=C(O)Cc1cccc(OCCCN(Cc2cccc(C(F)(F)F)c2Cl)CC(c2ccccc2)c2ccccc2)c1` [GW3965, 3-[3-[N-(2-Chloro-3-trifluoromethylbenzyl)-(2,2-diphenylethyl)amino]propyloxy]phenylacetic acid hydrochloride, reference compound], the tumor suppressive efficacy (mouse melanoma; 100 mg/kg in combination with anti-CTLA-4) was “additive tumor suppressive efficacy”, the anti-tumor efficacy (mouse melanoma; 100 mg/kg in combination with dacarbazine, syngeneic melanoma animal model) was “Additive anti-tumor efficacy” and the anti-tumor efficacy [1] was “Additive anti-tumor efficacy”.
For “ipilimumab: recombinant human IgG1 kappa monoclonal antibody that binds to CTLA-4”, the immune-mediated hepatitis ([2]; in vivo) is listed as “immune-mediated hepatitis has been observed”.
In the case of `N.N.O=C([O-])C1(C(=O)[O-])CCC1.[Pt+2]` [Carboplatin, platinum, diammine[1,1-cyclobutanedicarboxylato(2-)-O,O′]-, (SP-4-2)], the “pH of a 1% solution” value [3] is listed as 5-7, the “solubility in ethanol, acetone, and dimethylacetamide” value ([4]; ethanol, acetone, dimethylacetamide) is listed as “virtually insoluble” and the solubility in water ([4]; water) is listed as “approximately 14 mg/mL”.
In the case of `N.N.[Cl][Pt][Cl]` [cisplatin, reference compound], the mean tumor volume (Xenograft A549; day 0, in mm³ (unit assumed)) is reported as 86.05, the mean tumor volume (Xenograft A549; day 3) is reported as 116.20 and the mean tumor volume (Xenograft A549; day 6) is reported as 196.48. For the same molecule, the mean tumor volume (Xenograft A549; day 9, in mm³ (unit assumed)) was 276.41, the mean tumor volume (Xenograft A549; day 12, in mm³ (unit assumed)) was 450.58 and the mean tumor volume (Xenograft A549; day 15, in mm³ (unit assumed)) was 598.84. For the same molecule, the mean tumor volume (Xenograft A549; day 19) was 1239.53 and the mean tumor volume (Xenograft A549; day 22) was 1521.86.
For “nivolumab: fully human immunoglobulin (Ig) G4 monoclonal antibody directed against programmed death-1 (PD-1)”, the “hyperlipidemia in treated subjects” value ([2]; in vivo) is listed as “has also been reported” and the immune-mediated hepatitis ([2]; in vivo) is listed as “immune-mediated hepatitis has been observed”.
In the case of `CC(=O)O[C@@]12CO[C@@H]1C[C@H](O)[C@@]1(C)C(=O)[C@H](O)C3=C(C)[C@@H](OC(=O)[C@H](O)[C@@H](NC(=O)OC(C)(C)C)c4ccccc4)C[C@@](O)([C@@H](OC(=O)c4ccccc4)[C@H]21)C3(C)C` [docetaxel, (2R,3S)—N-carboxy-3-phenylisoserine,N-tert-butyl ester, 13-ester with 5b-20-epoxy-1,2a,4,7b, 10b, 13a-hexahydroxytax-11-en-9-one 4-acetate 2-benzoate, trihydrate], the hepatotoxicity ([2]; treatment with the partner drug) is given as “hepatotoxicity has been observed”.

Source: patent publication US20220331274A1, “METHODS OF TREATING CANCER” (Inspirna, Inc., priority 2019, published 2022)
